EP0257993B1, “Nucleic acid fragment encoding herbicide resistant plant acetolactate synthase” (priority 1986, dated 1988)

Legend:
[1] = system: tobacco plant cells; experiment: Herbicide resistance in plant cells transformed with site specific mutant sugarbeet ALS gene; assay type: cell-based; settings: 2x10^5 starting plant cells; for Chlorsulfuron^R: chlorsulforon at 2ppb; for Kanamycin^R: kanamycin at 50ppm
Procedure: Introduction of the ALS genes into herbicide sensitive tobacco and sugarbeet, by co-cultivation of the plant cells with A. tumefaciens carrying the ALS genes in the binary vector, was performed as described in EXAMPLE I and EXAMPLE II. Herbicide resistant transformants were obtained with three of the four mutant sugarbeet ALS genes. The frequency of obtaining herbicide resistant transformants was lower than that for kanamycin resistant transformants, and also lower than the frequency of herbicide resistant transformants obtained when the tobacco SURB-Hra gene was used. […] This may reflect either insufficient nucleotide regulatory sequences upstream or downstream of the mutant sugarbeet ALS genes in the DNA fragments used or poor utilization of sugarbeet nucleotide regulatory sequences in tobacco or both. […]
Gene introductions were done by standard co-cultivation method. […] Selection was with chlorsulforon at 2ppb or kanamycin at 50ppm.

[2] = system: tobacco callus; experiment: Growth of tobacco mutant callus (C3, S4, Hra) on herbicide; assay type: cell-based, Nicotiana tabacum var. Xanthi; settings: Hra cell line
Procedure: Callus cultures of sensitive tobacco (Nicotiana tabacum var. Xanthi) were exposed to sulfometuron methyl at 2 ppb according to the method described by Chaleff, U.S. 4,443,971. […] Plants were regenerated from Hra callus cultures. […] ALS activity in extracts of leaves of wild type and homozygous Hra mutant tobacco plants was determined.

[3] = system: Sensitive N. tabacum Cells; experiment: Co-cultivation of N. tabacum protoplasts with A. tumefaciens, colony formation on selective media; assay type: cell-based, Nicotiana tabacum var. Wisconsin 38; settings: for Number of Colony Forming Units derived from 10^5 Protoplast Equivalents One Month after Co-cultivation: Table 7
Procedure: Sterile tobacco (Nicotiana tabacum var. Wisconsin 38) plants were cultured from 1 cm apical or auxillary explants on OMS Medium in Magenta Boxes under a cycle of a 16 hour light period (6,000-8,000 lux) followed by an 8 hour dark period. When the plants were 5-7 weeks old, fully expanded leaves (3-6 leaves down from the apex) were removed, and two leaves each were placed, top surface down, on 20 mL of protoplast isolation medium in a 100 x 25 mm petri dish. The leaves were then submerged and finely divided with a sharp surgical blade. The midrib was held and the cuts were made outward from it towards the leaf margin at approximately 2 mm intervals. The petri dishes were then sealed with parafilm and the macerated tissue incubated overnight (14-17 hours) in darkness at 27-29°C with gentle gyrotory agitation (20-25 rpm).
The glass tubing was placed in a Babcock bottle, and the cheesecloth was wetted with K3/S(1) Medium. The digested leaf tissue from two petri dishes was carefully poured into the funnel. The cheesecloth was rinsed and expressed into the bottle. The loaded bottles were topped with K3/S(1) Medium, covered with foil and centrifuged at approximately 100 x g for 10 minutes. The floating protoplasts (1-2 mL) were collected with a 1 mL serological pipette and placed in 20 mL of K3/S(1) Medium in another Babcock bottle. After resuspending the protoplasts by gently swirling, the Babcock bottles were topped and centrifuged as before. The floating protoplasts (1-2 mL) were collected as described above and placed in 30 mL of K3/G(1) Medium. The protoplasts were counted in a hemacytometer, and the volume was adjusted to give 1 x 10^+5 protoplasts/mL. 5 mL aliquots of the protoplasts were plated in petri dishes [100 x 20 mm tissue-culture petri dishes (Corning); these dishes were used in all subsequent protoplast manipulations] and cultured in darkness.
When the optical density (at 550 nm) of the A. tumefaciens cultures was 0.6 (log phase culture), approximately 6 hours after dilution, the bacteria were added to plant cells at a multiplicity of approximately 50 bacteria/plant cell (an optical density of 1.0 at 550 nm = 1.4 x 10^9 bacteria). The bacteria and plant cell mixture was co-cultivated for 66 hours at 24°C in low light (approximately 500 lux). Non-transformed protoplast controls were incubated similarly, but without agrobacteria. The following protocol is carried out for each co-cultivation (transformed cells with different agrobacteria, as well as non-transformed cells).
Co-cultivation was terminated by adding 20 mL of a 1:1 mixture of K3/G(2) Medium:C Medium supplemented with 500 mg/liter of cefotaxime (to select against the agrobacteria) to 5 mL of the co-cultivation mixture. The co-cultivated cells were gently and thoroughly resuspended in the new medium by mixing with a 5 or 10 mL serological pipette. The cell density was 2 x 10^4 protoplast equivalents/mL (protoplast equivalents = initial protoplasts, assuming 100% recovery and cell survival) and the osmoticum was 0.35 M. Three 5 mL aliquots of each culture were dispensed into fresh petri dishes.
From this juncture until the cells were embedded in solid medium, the cells were cultured in low light (500-1500 lux) without motion and were aseptically transferred to different media. […] For these transfers, the contents of each plate were collected with a 5 mL serological pipette, placed in separate 15 mL polystyrene conical centrifuge tubes and centrifuged at approximately 50 x g for 5-10 minutes. The supernatant fluid was removed with a pipette without disrupting the loose pellet. Pellets of co-cultivated cells from each plate were then gently resuspended in the appropriate fresh medium.
Each of these cultures was returned to the petri dishes from which they were taken; in this way not all cells needed to be pelleted to effect a medium exchange with minimal cell loss.

[4] = system: alfalfa callus; experiment: Resistant growth of transformed alfalfa callus and tissue; assay type: cell-based, Medicago sativa cv. Rangelander
Procedure: These explants were dipped into a log phase Agrobacterium culture prepared as described in EXAMPLE I, transferred to fresh co-cultivation plates, and cultured at 24°C with 16 hr. days for 3 days.
The bacteria were killed by washing the explants for 3 hrs. with gentle agitation in washing media, and cultured on fresh selection plates.
The explants were subcultured every 3-4 weeks. […] When callus became more organized, (areas are darker green and more compact) it was transferred to fresh maturation media.

[5] = Gene Origin Sugarbeet, ala(122)-pro
[6] = Gene Origin Sugarbeet, pro(197)-ala/trp(591)-leu
[7] = Gene Origin Sugarbeet, pro(197)-ala
[8] = Gene Origin Sugarbeet, trp(591)-leu
[9] = Gene Origin Tobacco, pro(197)-ala/trp(591)-leu

Which results are given for COc1nc(C)nc(NC(=O)NS(=O)(=O)c2ccccc2Cl)n1 [chlorsulfuron]?
Chlorsulfuron^R [1, 5]: 0; Chlorsulfuron^R [1, 6]: 91; Chlorsulfuron^R [1, 7]: 35; Chlorsulfuron^R [1, 8]: 2; Chlorsulfuron^R [1, 9]: 698; cross resistance of cell line [2]: cross resistant; chlorsulfuron resistance conferred in transformed tobacco calluses ([3]; 6.3 kb DNA fragment (SURA-C3)): 2 ppb; Number of colony forming units derived from 10^5 protoplast equivalents one month after co-cultivation ([3]; Table 4, N.t. (non-cocultured control plant cells), Chlorsulfuron 2 ng/mL): 0; Number of colony forming units derived from 10^5 protoplast equivalents one month after co-cultivation ([3]; Table 4, N.t./P145 (pAGS145, herbicide-sensitive ALS from phage clone 1), Chlorsulfuron 2 ng/mL): 0; Number of colony forming units derived from 10^5 protoplast equivalents one month after co-cultivation ([3]; Table 5, N.t. (non-cocultured control plant cells), Chlorsulfuron 2 ng/mL): 0; Number of colony forming units derived from 10^5 protoplast equivalents one month after co-cultivation ([3]; Table 5, N.t./P112 (pAGS112, kanamycin resistance vector), Chlorsulfuron 2 ng/mL): 0; Number of colony forming units derived from 10^5 protoplast equivalents one month after co-cultivation ([3]; Table 5, N.t./p152 (pAGS152, phage clone 3), Chlorsulfuron 2 ng/mL): 6.5 x 10^2; Number of Colony Forming Units derived from 10^5 Protoplast Equivalents One Month after Co-cultivation ([3]; N.t. (non co-cultured plant cells), Chlorsulfuron 2 ng/ml): 0; Number of Colony Forming Units derived from 10^5 Protoplast Equivalents One Month after Co-cultivation ([3]; N.t./P312 (pAGS312, C3 subclone, φ31 orientation 1), Chlorsulfuron 2 ng/ml): 0; Number of Colony Forming Units derived from 10^5 Protoplast Equivalents One Month after Co-cultivation ([3]; N.t./p152 (pAGS152, S4/Hra subclone), Chlorsulfuron 2 ng/ml): 83; Number of Colony Forming Units derived from 10^5 Protoplast Equivalents One Month after Co-cultivation ([3]; N.t./p313 (pAGS313, C3 subclone, φ31 orientation 2), Chlorsulfuron 2 ng/ml): 0; Number of Colony Forming Units derived from 10^5 Protoplast Equivalents One Month after Co-cultivation ([3]; N.t./p351 (pAGS351, C3 subclone, φ35), Chlorsulfuron 2 ng/ml): 32; Number of Colony Forming Units derived from 10^5 Protoplast Equivalents One Month after Co-cultivation ([3]; N.t./p381 (pAGS381, C3 subclone, φ38), Chlorsulfuron 2 ng/ml): 18; resistance of kanamycin resistant sectors ([4]; chlorsulfuron at 50 ppb): resistant; chlorsulfuron concentration at which transformant tissue was able to grow ([4]; one transformant): 1000 ppb; chlorsulfuron concentration at which transformant tissue was able to grow ([4]; the other two transformants): 5000 ppb

For NC[C@H]1O[C@H](O[C@H]2[C@H](O)[C@@H](O[C@H]3O[C@H](CO)[C@@H](O)[C@H](N)[C@H]3O)[C@H](N)C[C@@H]2N)[C@H](O)[C@@H](O)[C@@H]1O [Kanamycin], which “Kanamycin^R” value [1, 5] is on record?
Its value is 415.

And the “Kanamycin^R” value [1, 6]?
The value was 1362.

And the “Kanamycin^R” value [1, 7]?
The value was 1073.

What about the “Kanamycin^R” value [1, 8] of the same compound?
Its value is 1080.

What about the “Kanamycin^R” value [1, 9] of the same compound?
The value was 1083.

What about the “Number of colony forming units derived from 10^5 protoplast equivalents one month after co-cultivation” value ([3]; Table 4, N.t. (non-cocultured control plant cells), Kanamycin 50 µg/mL) of the same compound?
Its value is 0.

And the “Number of colony forming units derived from 10^5 protoplast equivalents one month after co-cultivation” value ([3]; Table 4, N.t./P145 (pAGS145, herbicide-sensitive ALS from phage clone 1), Kanamycin 50 µg/mL)?
Its value is 5.9 x 10^2.

What about the “Number of colony forming units derived from 10^5 protoplast equivalents one month after co-cultivation” value ([3]; Table 5, N.t. (non-cocultured control plant cells), Kanamycin 50 µg/mL) of the same compound?
Its value is 0.

What about the “Number of colony forming units derived from 10^5 protoplast equivalents one month after co-cultivation” value ([3]; Table 5, N.t./P112 (pAGS112, kanamycin resistance vector), Kanamycin 50 µg/mL) of the same compound?
The value was 2.5 x 10^3.

What about the “Number of colony forming units derived from 10^5 protoplast equivalents one month after co-cultivation” value ([3]; Table 5, N.t./p152 (pAGS152, phage clone 3), Kanamycin 50 µg/mL) of the same compound?
The value was 6.2 x 10^2.

And the “Number of Colony Forming Units derived from 10^5 Protoplast Equivalents One Month after Co-cultivation” value ([3]; N.t. (non co-cultured plant cells), Kanamycin 50 ug/ml)?
Its value is 0.

What about the “Number of Colony Forming Units derived from 10^5 Protoplast Equivalents One Month after Co-cultivation” value ([3]; N.t./P312 (pAGS312, C3 subclone, φ31 orientation 1), Kanamycin 50 ug/ml) of the same compound?
The value was 65.

What about the “Number of Colony Forming Units derived from 10^5 Protoplast Equivalents One Month after Co-cultivation” value ([3]; N.t./p152 (pAGS152, S4/Hra subclone), Kanamycin 50 ug/ml) of the same compound?
Its value is 88.

What about the “Number of Colony Forming Units derived from 10^5 Protoplast Equivalents One Month after Co-cultivation” value ([3]; N.t./p313 (pAGS313, C3 subclone, φ31 orientation 2), Kanamycin 50 ug/ml) of the same compound?
The value was 48.

What about the “Number of Colony Forming Units derived from 10^5 Protoplast Equivalents One Month after Co-cultivation” value ([3]; N.t./p351 (pAGS351, C3 subclone, φ35), Kanamycin 50 ug/ml) of the same compound?
Its value is 139.

And the “Number of Colony Forming Units derived from 10^5 Protoplast Equivalents One Month after Co-cultivation” value ([3]; N.t./p381 (pAGS381, C3 subclone, φ38), Kanamycin 50 ug/ml)?
The value was 87.

And the “explants that developed callus resistant to kanamycin” value ([4]; kanamycin at 100mg/L)?
Its value is “Less than 1%”.
